Results published in patent publication US20250154169A1, “COMPOUNDS AND METHODS FOR MODULATING SPLICING” (REMIX THERAPEUTICS INC., priority 2021, published 2025).
Read-outs that look alike come from different tables or passages of the source.

Legend:
Type in all cases: cell-based, human
MYB mRNA = experiment: Splicing RT-qPCR assay, MYB canonical (CJ) and alternative (AJ) junction mRNA; details: Tables 4A/4B, canonical junction qPCR panel, read-out: MYB (IC50, decrease in CJ mRNA, gene panel)
In short: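 Read-out is the abundance of canonical-junction versus new alternative-exon-junction mRNA, determined by real-time qPCR after cDNA synthesis and normalized to a housekeeping gene. It is measured in A673 or K562 cells exposed to compounds for 24 h, top dose 10 uM.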

SMN2 mRNA = experiment: Splicing RT-qPCR gene panel, SMN2 canonical junction (CJ) mRNA; details: Tables 4A/4B, read-out: SMN2 (IC50, decrease in CJ mRNA, gene panel)
Protocol: (§1) Compounds described herein were used to modulate RNA transcript abundance in cells. The expression of a target mRNA was measured by detecting the formation of an exon-exon junction in the canonical transcript (CJ). A compound mediated exon-inclusion event was detected by observing an increase in formation of a new junction with an alternative exon (AJ). Real-time qPCR assays were used to detect these splicing switches and interrogate the potency of various compounds towards different target genes. A high-throughput real time quantitative PCR (RT-qPCR) assay was developed to measure these two isoforms of the mRNA (CJ and AJ) for exemplary genes, such as HTT, SMN2, and MYB, together with a control housekeeping gene, GAPDH or GUSB or PPIA, used for normalization. Briefly, the A673 or K562 cell line was treated with various compounds described herein (e.g., compounds of Formula (I)). After treatment, the levels of the HTT, MYB, or SMN2 mRNA targets were determined from each sample of cell lysate by cDNA synthesis followed by qPCR.
(§2) The A673 cell line was cultured in DMEM with 10% FBS. Cells were diluted with full growth media and plated in a 96-well plate (15,000 cells in 100 ul media per well). The plate was incubated at 37° C. with 5% CO2 for 24 hours to allow cells to adhere. An 11-point 3-fold serial dilution of the compounds was made in DMSO then diluted in media in an intermediate plate. Compounds were transferred from the intermediate plate to the cell plate with the top dose at a final concentration of 10 uM in the well. Final DMSO concentration was kept at or below 0.25%. The cell plate was returned to the incubator at 37° C. with 5% CO2 for an additional 24 hours.
(§3) The K562 cell line was cultured in IMDM with 10% FBS. For K562, cells were diluted with full growth media and plated in either a 96-well plate (50,000 cells in 50 uL media per well) or a 384-well plate (8,000-40,000 cells in 45 uL media per well). An 11-point 3-fold serial dilution of the compounds were made in DMSO then diluted in media in an intermediate plate. Compound was transferred from the intermediate plate to the cell plate with the top dose at a final concentration of 10 uM in the well. Final DMSO concentration was kept at or below 0.25%. Final volume was 100 uL for 96-well plate and 50 uL for 384-well plate. The cell plate was then placed in an incubator at 37° C. with 5% CO2 for 24 hours.
(§4) The cells were then gently washed with 50 uL-100 uL cold PBS before proceeding to addition of lysis buffer. 30 uL-50 uL of room temperature lysis buffer with DNAse I (and optionally RNAsin) was added to each well. Cells were shaken/mixed thoroughly at room temperature for 5-10 minutes for lysis to take place and then 3 uL-5 uL of room temperature stop solution was added and wells were shaken/mixed again. After 2-5 minutes, the cell lysate plate was transferred to ice for RT-qPCR reaction setup. The lysates could also be frozen at −80° C. for later use.
(§5) In some cases, a direct lysis buffer was used. An appropriate volume of 3× lysis buffer (10 mM Tris, 150 mM NaCl, 1.5%-2.5% Igepal and 0.1-1 U/uL RNAsin, pH 7.4) was directly added to either K562 or A673 cells in media and mixed by pipetting 3 times. The plates were then incubated at room temperature with shaking/rocking for 20-50 minutes to allow for lysis to take place. After this time, the cell lysate plate was transferred to ice to set up for the RT-qPCR reactions. The lysates could also be frozen at −80° C. for later use.
(§6) To set up 10 uL RT-qPCR reactions, cell lysates were transferred to 384-well qPCR plates containing the master mix according to the table below. The plates were sealed, gently vortexed, and spun down before the run. The volumes were adjusted accordingly in some instances where the reaction was carried in 20 μL. The table below summarizes the components of the RT-qPCR reactions:
(§7) The RT-qPCR reaction was performed using a QuantStudio (ThermoFisher) under the following fast cycling conditions. […]

Target C mRNA = experiment: Splicing RT-qPCR gene panel, Target C canonical junction (CJ) mRNA; details: Tables 4A/4B, read-out: Target C (IC50, decrease in CJ mRNA, gene panel)
Protocol: as §1, §2, §3, §4, §5, §6, §7

HTT mRNA = experiment: Splicing RT-qPCR gene panel, HTT canonical junction (CJ) mRNA; details: Tables 4A/4B, read-out: HTT (IC50, decrease in CJ mRNA, gene panel)
Protocol: as §1, §2, §3, §4, §5, §6, §7

SMILES | IC50 (MYB mRNA; Homo sapiens) [nM] | IC50 (SMN2 mRNA; Homo sapiens) [nM] | IC50 (Target C mRNA; Homo sapiens) [nM] | IC50 (HTT mRNA; Homo sapiens) [nM] | IC50 (MYB mRNA) [nM] | IC50 (SMN2 mRNA) [nM] | IC50 (Target C mRNA) [nM] | IC50 (HTT mRNA) [nM]
Cc1cn2cc(NC(=O)c3ccc(N4CC[C@H](NC5(CF)CC5)C4)c4cn(C)nc34)cc(F)c2n1 (single isomer, unassigned) [Compound 449] | < 100 | < 100 | > 10000 | 1000 to 10000 |  |  |  | 
Cc1cn2cc(NC(=O)c3ccc(N4CCC(NC(C)(C)C)C4)c4cc(C)oc34)cc(F)c2n1 (stereo not drawn) [Compound 203] | 100 to 1000 | < 100 | > 10000 | > 10000 |  |  |  | 
Cc1cn2cc(NC(=O)c3ccc(N4CCN(C)CC4)c4cn(C)nc34)cc(F)c2n1 [Compound 207] | < 100 | < 100 | 1000 to 10000 | 100 to 1000 |  |  |  | 
Cc1cn2cc(NC(=O)c3ccc(C4C[C@@H](C)N[C@@H](C)C4)c4cn(C)nc34)cc(F)c2n1 (stereo partly drawn) [Compound 211] | 100 to 1000 | < 100 | 1000 to 10000 | 1000 to 10000 |  |  |  | 
Cc1cc2c(N3CCNCC3)ccc(C(=O)Nc3cc(F)c4nc(C)oc4c3)c2o1 [Compound 218] | 100 to 1000 | < 100 | 1000 to 10000 | 1000 to 10000 |  |  |  | 
Cc1cn2cc(NC(=O)c3ccc(N4CCNC(C)C4)c4cn(C)nc34)cc(F)c2n1 (stereo not drawn) [Compound 228] | < 100 | < 100 | 100 to 1000 | 100 to 1000 |  |  |  | 
Cc1nc2c(F)cc(NC(=O)c3ccc(N4CCNCC4)c4cn(C)nc34)cc2o1 [Compound 234] | < 100 | < 100 | 1000 to 10000 | 1000 to 10000 |  |  |  | 
Cc1cn2cc(NC(=O)c3ccc(N4CCNC5(CC5)C4)c4cn(C)nc34)cc(F)c2n1 [Compound 241] | 100 to 1000 | < 100 | 1000 to 10000 | 100 to 1000 |  |  |  | 
Cc1cn2cc(NC(=O)c3ccc(N4CCN5CCCC5C4)c4cn(C)nc34)cc(F)c2n1 (stereo not drawn) [Compound 250] | < 100 | < 100 | 100 to 1000 | < 100 |  |  |  | 
Cc1cn2cc(NC(=O)c3ccc(N4CCC(N(C)C)CC4)c4cn(C)nc34)cc(F)c2n1 [Compound 251] | < 100 | < 100 | 1000 to 10000 | 100 to 1000 |  |  |  | 
CCNC1CCN(c2ccc(C(=O)Nc3cc(F)c4nc(C)cn4c3)c3nn(C)cc23)CC1 [Compound 252] | < 100 | < 100 | 100 to 1000 | 100 to 1000 |  |  |  | 
Cc1cn2cc(NC(=O)c3ccc(N4CCNC(C)C4)c4cn(C)nc34)cc(Cl)c2n1 (stereo not drawn) [Compound 277] | < 100 | < 100 | 1000 to 10000 | 100 to 1000 |  |  |  | 
Cc1cn2cc(NC(=O)c3ccc(N4C[C@H]5CC[C@@H](C4)N5)c4cn(C)nc34)cc(Cl)c2n1 [Compound 279] | < 100 | < 100 | 1000 to 10000 | 1000 to 10000 |  |  |  | 
CCn1cc2c(N3CCNCC3)ccc(C(=O)Nc3cc(Cl)c4nc(C)cn4c3)c2n1 [Compound 284] | < 100 | < 100 | 1000 to 10000 | 1000 to 10000 |  |  |  | 
Cc1cn2cc(NC(=O)c3ccc(N4CCNCC4)c4cn(C)nc34)cc(Cl)c2n1 [Compound 285] |  |  |  |  | < 100 | < 100 | 100 to 1000 | 100 to 1000
CCn1cc2c(N3CCNCC3)ccc(C(=O)Nc3cc(F)c4nc(C)cn4c3)c2n1 [Compound 288, 2-ethyl-N-{8-fluoro-2-methylimidazo[1,2-a]pyridin-6-yl}-4-(piperazin-1-yl)indazole-7-carboxamide] | < 100 | < 100 | 1000 to 10000 | 1000 to 10000 |  |  |  | 
Cc1cn2cc(NC(=O)c3c(F)cc(N4CCNCC4)c4cn(C)nc34)cc(F)c2n1 [Compound 361, 6-fluoro-N-{8-fluoro-2-methylimidazo[1,2-a]pyridin-6-yl}-2-methyl-4-(piperazin-1-yl) indazole-7-carboxamide] | < 100 | < 100 | < 100 | < 100 |  |  |  | 
C=Cn1cc2c(N3CCNCC3)ccc(C(=O)Nc3cc(F)c4nc(C)cn4c3)c2n1 [Compound 363, 2-ethenyl-N-{8-fluoro-2-methylimidazo[1,2-a]pyridin-6-yl}-4-(piperazin-1-yl) indazole-7-carboxamide] | < 100 | < 100 | < 100 | < 100 |  |  |  | 
Cc1cn2cc(N(C)C(=O)c3ccc(N4CCNCC4)c4cn(C)nc34)cc(F)c2n1 [Compound 386, N-{8-fluoro-2-methylimidazo[1,2-a]pyridin-6-yl}-N,2-dimethyl-4-(piperazin-1-yl) indazole-7-carboxamide] | > 10000 | > 10000 | > 10000 | > 10000 |  |  |  | 
Cc1cn2cc(NC(=O)c3ccc(N4CCC5(CC4)CCN5C)c4cn(C)nc34)cc(F)c2n1 [Compound 422, N-{8-fluoro-2-methylimidazo[1,2-a]pyridin-6-yl}-2-methyl-4-{1-methyl-1,7-diazaspiro[3.5]nonan-7-yl}indazole-7-carboxamide; bis(trifluoroacetic acid)] | < 100 | < 100 | 100 to 1000 | < 100 |  |  |  | 
CCOc1nc(NC(=O)c2ccc(N3CC[C@@H](NC)C3)c3cn(C)nc23)cn2cc(C)nc12 [Compound 433] | 100 to 1000 | < 100 | 1000 to 10000 | 1000 to 10000 |  |  |  | 
C=C(C)n1cc2c(N3CCNCC3)ccc(C(=O)Nc3cc(F)c4nc(C)cn4c3)c2n1 [Compound 440, N-{8-fluoro-2-methylimidazo[1,2-a]pyridin-6-yl}-4-(piperazin-1-yl)-2-(prop-1-en-2-yl) indazole-7-carboxamide] | < 100 | < 100 | 1000 to 10000 | < 100 |  |  |  | 
C/C=C/n1cc2c(N3CCNCC3)ccc(C(=O)Nc3cc(F)c4nc(C)cn4c3)c2n1 [Compound 445, N-{8-fluoro-2-methylimidazo[1,2-a]pyridin-6-yl}-4-(piperazin-1-yl)-2-[(1E)-prop-1-en-1-yl]indazole-7-carboxamide] | < 100 | < 100 | 100 to 1000 | < 100 |  |  |  | 
CCNC1CCN(c2cc(F)c(C(=O)Nc3cn4cc(C)nc4c(F)c3OC)c3nn(C)cc23)CC1 [Compound 471] | < 100 | < 100 | < 100 | < 100 |  |  |  | 
